These results are taken from patent publication US20050142065A1, “Screening method” (priority 2002, published 2005).

One assay concerns Wistar fatty rats. As to the kind of experiment: Glycated hemoglobin value in Wistar fatty rats given the compound in powder diet. It counts as in vivo, rat. To be noted: for decrease in the glycated hemoglobin value, corrected for control group: minus decrease in control a group; for decrease in glycated hemoglobin value (before minus after administration): male Wistar fatty rats. How it is done: In this Experimental Example, the blood of the rats were taken in a microtube finally containing 0.01M EDTA as an anticoagulant agent, for the measurement of blood glucose level and glycated hemoglobin value. The glycated hemoglobin value was measured by high performance liquid chromatograph (HLC-723GhbVA1c2.2 (product name, manufactured by Tosoh Corporation)) using an aminophenyl boronate affinity column and an absorbance (415 nm) detection method. For the mobile phase, eluents A, B (manufactured by Tosoh Corporation) were used, and the conditions set for chromatography, such as column temperature, flow rate and the like, followed the standard conditions set for this chromatography. […] The glycated hemoglobin value was measured at 4 and 5 weeks after the start of the experiment.

The subject of assay [1] is Diabetes mellitus patients. As to the kind of experiment: Hemoglobin A1c value in diabetes mellitus patients after oral administration. The class given is in vivo, human. The conditions noted are these: 30 mg daily dose.
Protocol: Diabetes mellitus patients (134 patients, age 57.6±11.5 years old, fasting blood glucose level 183.2±35.2 mg/dl, hemoglobin A1c value 9.27±1.60%) were divided into 2 groups.

Each structure is given as a SMILES string. Where a name gives a salt, the structure may show the parent alone.

Turning to `CCc1ccc(CCOc2ccc(CC3SC(=O)NC3=O)cc2)nc1` (centres unmarked) [pioglitazone hydrochloride], the “decrease in the glycated hemoglobin value, corrected for control group” value in the assay with Wistar fatty rats (b group, 0.8 mg/kg body weight daily in diet, 4 weeks) is 1.1%; with Wistar fatty rats (b group, 0.8 mg/kg body weight daily in diet, 5 weeks) it was 1.3%; in the assay on Wistar fatty rats (c group, 2.4 mg/kg body weight daily in diet, 4 weeks), 2.5%; in the assay with Wistar fatty rats (c group, 2.4 mg/kg body weight daily in diet, 5 weeks), 2.7%. Also, the “decrease in glycated hemoglobin value (before minus after administration)” value with Wistar fatty rats (b group, 0.8 mg/kg body weight daily in diet, 4 weeks after start of administration) amounted to 1.4%; in the assay on Wistar fatty rats (b group, 0.8 mg/kg body weight daily in diet, 5 weeks after start of administration), 1.9%; with Wistar fatty rats (c group, 2.4 mg/kg body weight daily in diet, 4 weeks after start of administration), 2.8%; in the assay with Wistar fatty rats (c group, 2.4 mg/kg body weight daily in diet, 5 weeks after start of administration), 3.3%. Moreover, the “decrease in the hemoglobin A1c value” in assay [1] (8 weeks after start of administration) is reported as 0.70%; in assay [1] (12 weeks after start of administration) it was 1.08%. For the same molecule, the “decrease in hemoglobin A1c value, corrected for placebo group” value in assay [1] (8 weeks, minus decrease in placebo group) was determined as 0.68%.
